Experimental data taken from patent publication US12503446B2, “Bromodomain inhibitors” (FORSCHUNGSZENTRUM JÜLICH GMBH, priority 2019, dated 2025).
Entries after “also recorded” stand apart in the source; their conditions may differ.

What was measured:
AML cell line Molm-14 = test: MTT assay, metabolic activity of Molm-14 cells; assay type: cell-based; conditions: 72 h; for effect on metabolic activity of Molm-14 cells (in words): concentrations up to 20 μM
Procedure: (§1) All studies with the HEL, Molm-14 and K562 cell lines mentioned (sourced from DSMZ: ACC-11, ACC-10 and ACC-777) were conducted under germ-free conditions under a sterile hood. Incubation was effected at 37° C. in an incubator at a CO2 saturation of 5%. For the passage of the suspension cells, the cells were transferred in a Falcon prefilled with PBS (phosphate buffered saline) and centrifuged at 1200 rpm for 5 min. All three cell lines were cultured in RPMI-1640 medium (Gibco, Thermo Fischer Scientific, Darmstadt, Germany) with 10% FCS and 1% penicillin streptomycin.
(§2) The viability and metabolic activity of the cells were measured by the MTT assay. Yellow, water-soluble MTT (3-([…])-2,5-diphenyltetrazolium bromide) is a tetrazolium salt which is reduced to dark blue formazan in living cells. Insoluble formazan is released by addition of isopropanol-HCl, and its intensity can be determined by photometry at a wavelength of 550 nm. Thus, the proportion of living cells is measured by comparison with a particular control sample. The cells were counted and washed with PBS, and 30 000 cells per well were sown in triplicates in a 96-well plate. For the inhibitor treatment, the stated final concentrations were used. For this purpose, 10 µl of the appropriate inhibitor dilution was introduced into the 96-well plates, and then 90 μl of cell suspension was pipetted in. The plates were incubated in an incubator for 72 h (37° C., 5% CO2). After the incubation, 10 μl of MTT solution (5 mg/ml) was applied to the wells with a multichannel pipette and thoroughly resuspended. This was followed by incubation for 4 h in the dark at room temperature. Subsequently, the cells were resuspended in 100 μl of isopropanol-HCl and lysed, and absorption at a wavelength of 550 nm was measured by photometry with a plate reader (Kayto, RT-2100C).
(§3) The erythroleukaemia cell line HEL (JAK2V617F-positive), the AML cell line Molm-14 and the chronic myeloid leukaemia (CML) cell line K562 (BCR-ABL-positive) were used for cell experiments.
(§4) Compounds MF1-R, MF1-S, JHS1-R and JHS1-S were dissolved in DMSO, and each was used in concentrations of 0.1 μM, 1 μM, 10 μM and 20 μM. Correspondingly, DMSO was included in each case as a control treatment, and the metabolic activity thereof was set to 100%. The HEL, Molm-14 and K562 cell lines were treated with the respective compounds in the different concentrations and, after 72 h in culture, the metabolic activity, which gives information about the growth of the cells, was determined by means of MTT [3-(4,5-dimethylthiazol-2-yl)-2,5-diphenyltetrazolium bromide] assay.

[1] = tested on: erythroleukaemia cell line HEL (JAK2V617F-positive); test: MTT assay, metabolic activity of HEL cells; assay type: cell-based; conditions: 72 h; for effect on metabolic activity of HEL cells (in words): concentrations up to 20 μM
Procedure: as §1, §2, §3, §4

[2] = tested on: haematopoietic cell lines, erythroleukaemia and AML cell lines; test: Inhibitory activity in haematopoietic cell lines (summary statements); assay type: cell-based; conditions: for activity relative to PFI-1 in haematopoietic cell lines: racemic mixtures of MF1, MF2, achiral MF3
Procedure: as §1, §2

[3] = tested on: PBMC or CD34+ cells from healthy donors; test: CFU assay, healthy controls; assay type: cell-based, human
Procedure: With the aid of the CFU assay, it is possible to determine the colony-forming capacity of individual cells in a semisolid methylcellulose medium (MethoCult H4434, StemCell Technologies, Cologne, Germany). The number of colonies was determined after 7-11 days.
CD34+ cells (G-CSF mobilized from stem cell donors) from healthy donors: 2×10^4 cells/ml; PBMCs from the healthy subjects: 4×10^5 cells/ml.
For this purpose, mononuclear cells (PBMC: mononuclear cells from peripheral blood) or CD34-positive stem cells (CD34+ cells) were isolated from the blood of four healthy controls and three AML or MPN patients and introduced into semisolid medium, to each of which 1 μM or 5 μM of MFS-2 or PFI-1 have been added. Individual cells in the CFU assay form cell colonies in culture after 12 days, unless the formation thereof is prevented by inhibitors.

BRD2 = test: Thermal shift assay (BromoMELT assay), BRD2; assay type: binding; conditions: 10 μM, duplicates, versus DMSO control
Procedure: (§5) The experiment was conducted in duplicates at a concentration of 10 μM.

[4] = tested on: proteins from the BET family; test: Thermal shift assay (BromoMELT assay), BET family; assay type: binding; conditions: 10 μM, duplicates, versus DMSO control; apart from BRDT-2
Procedure: as §5

CN1Cc2cc(N=S(C)(=Nc3ccccc3)c3ccccc3)ccc2NC1=O (racemic) [JHS1, rac-N-(3-methyl-2-oxo-1,2,3,4-tetrahydroquinazolin-6-yl)-N-phenyl-S-methyl-S-phenylsulfonediimide]
effect on metabolic activity of Molm-14 cells (in words) (AML cell line Molm-14): reduced the metabolic activity of HEL and Molm-14 cells at concentrations of 10 and 20 μM; also recorded: achieved inhibition of the metabolic activity of HEL and Molm-14 cells at concentrations of 10 and 20 μM
effect on metabolic activity of HEL cells (in words) [1]: reduced the metabolic activity of HEL and Molm-14 cells at concentrations of 10 and 20 μM; also recorded: achieved inhibition of the metabolic activity of HEL and Molm-14 cells at concentrations of 10 and 20 μM

CN1Cc2cc(N=S(C)(=N)c3ccccc3)ccc2NC1=O (racemic) [JHS2, rac-N-(3-methyl-2-oxo-1,2,3,4-tetrahydroquinazolin-6-yl)-N′—H—S-methyl-S-phenylsulfonediimide]
effect on metabolic activity of Molm-14 cells (in words) (AML cell line Molm-14): inactive
effect on metabolic activity of HEL cells (in words) [1]: inactive
inhibitory activity in haematopoietic / leukaemia cell lines (in words) [2]: minor inhibitory activity

CN=S(C)(=Nc1ccc2c(c1)CN(C)C(=O)N2)c1ccccc1 (racemic) [JHS3, rac-N-(3-methyl-2-oxo-1,2,3,4-tetrahydroquinazolin-6-yl)-N-methyl-S-methyl-S-phenylsulfonediimide]
effect on metabolic activity of Molm-14 cells (in words) (AML cell line Molm-14): inactive
effect on metabolic activity of HEL cells (in words) [1]: inactive
inhibitory activity in haematopoietic / leukaemia cell lines (in words) [2]: minor inhibitory activity

COc1ccccc1S(C)(=O)=Nc1ccc2c(c1)CN(C)C(=O)N2 (racemic) [MF1, rac-N-(3-methyl-2-oxo-1,2,3,4-tetrahydroquinazolin-6-yl)-S-(2-methoxyphenyl)-S-methylsulfoximine]
inhibitory activity in haematopoietic / leukaemia cell lines (in words) [2]: marked inhibitory activity; also recorded: showed inhibitory activity
activity relative to PFI-1 in haematopoietic cell lines [2]: at a comparable level to PFI-1

CN1Cc2cc(N=S(C)(=O)c3ccccc3)ccc2NC1=O (racemic) [MF2, rac-N-(3-methyl-2-oxo-1,2,3,4-tetrahydroquinazolin-6-yl)-S-methyl-S-phenylsulfoximine]
effect on metabolic activity of Molm-14 cells (in words) (AML cell line Molm-14): reduced the metabolic activity of HEL and Molm-14 cells at concentrations of 10 and 20 μM
effect on metabolic activity of HEL cells (in words) [1]: reduced the metabolic activity of HEL and Molm-14 cells at concentrations of 10 and 20 μM
inhibitory activity in haematopoietic / leukaemia cell lines (in words) [2]: marked inhibitory activity
activity relative to PFI-1 in haematopoietic cell lines [2]: at a comparable level to PFI-1

CN1Cc2cc(N=[S@@](C)(=Nc3ccccc3)c3ccccc3)ccc2NC1=O [JHS1-R, (R)—N-(3-methyl-2-oxo-1,2,3,4-tetrahydroquinazolin-6-yl)-N′-phenyl-S-methyl-S-phenylsulfonediimide]
inhibitory activity in haematopoietic / leukaemia cell lines (in words) [2]: almost the same level of inhibitory action

CN1Cc2cc(N=[S@](C)(=Nc3ccccc3)c3ccccc3)ccc2NC1=O [JHS1-S, (S)—N-(3-methyl-2-oxo-1,2,3,4-tetrahydroquinazolin-6-yl)-N-phenyl-S-methyl-S-phenylsulfonediimide]
effect on metabolic activity of Molm-14 cells (in words) (AML cell line Molm-14): comparable effect on the metabolic activity
effect on metabolic activity of HEL cells (in words) [1]: comparable effect on the metabolic activity

COc1ccccc1[S@@](C)(=O)=Nc1ccc2c(c1)CN(C)C(=O)N2 [MF1-R, (R)—N-(3-methyl-2-oxo-1,2,3,4-tetrahydroquinazolin-6-yl)-S-(2-methoxyphenyl)-S-methylsulfoximine]
effect on metabolic activity of Molm-14 cells (in words) (AML cell line Molm-14): virtually inactive
effect on metabolic activity of HEL cells (in words) [1]: virtually inactive
inhibitory activity in haematopoietic / leukaemia cell lines (in words) [2]: minor inhibitory effect

COc1ccccc1[S@](C)(=O)=Nc1ccc2c(c1)CN(C)C(=O)N2 [MF1-S, (S)—N-(3-methyl-2-oxo-1,2,3,4-tetrahydroquinazolin-6-yl)-S-(2-methoxyphenyl)-S-methylsulfoximine]
effect on metabolic activity of Molm-14 cells (in words) (AML cell line Molm-14): comparable effect on the metabolic activity of HEL and Molm-14 cells to PFI-1
effect on metabolic activity of HEL cells (in words) [1]: comparable effect on the metabolic activity of HEL and Molm-14 cells to PFI-1

CN1Cc2cc(N=[S@](C)(=O)c3ccccc3)ccc2NC1=O [MF2-R, (R)—N-(3-methyl-2-oxo-1,2,3,4-tetrahydroquinazolin-6-yl)-S-Methyl-S-Phenylsulfoximine]
effect on metabolic activity of Molm-14 cells (in words) (AML cell line Molm-14): lost inhibitory activity compared to MF2
effect on metabolic activity of HEL cells (in words) [1]: lost inhibitory activity compared to MF2
inhibitory activity in haematopoietic / leukaemia cell lines (in words) [2]: showed inhibition of the cell proliferation of leukaemia cell lines

CN1Cc2cc(N=S(=O)(c3ccccc3)c3ccccc3)ccc2NC1=O [MF3, N-(3-methyl-2-oxo-1,2,3,4-tetrahydroquinazolin-6-yl)-S,S-diphenylsulfoximine]
inhibitory activity in haematopoietic / leukaemia cell lines (in words) [2]: marked inhibitory activity
activity relative to PFI-1 in haematopoietic cell lines [2]: at a comparable level to PFI-1

COc1ccccc1S(=O)(=O)Nc1ccc2c(c1)CN(C)C(=O)N2 [PFI-1, reference compound]
colony count, healthy CD34+ controls 3 and 4 ([3]; 1 μM): reduced the colony count of the controls to a lesser degree
colony count, healthy controls 1 (PBMC) and 2 (CD34+ cells) ([3]; 5 μM): likewise reduced the amount of colonies
metabolic activity of Molm-14 cells (AML cell line Molm-14; 1 μM, DMSO control set to 100%): 80.43%±1.324
binding of BRD2 (ΔTm, in words) (BRD2): stronger binding of BRD2
metabolic activity of HEL cells ([1]; 1 μM, DMSO control set to 100%): 72.95%±12.7
binding of BET family proteins (ΔTm, in words) [4]: specifically bind proteins of the BET family
